The text below walks through data of patent US7074789B2, “Kinase inhibitors” (Amgen Inc., priority 1999, dated 2006).

The structures appear in SMILES notation.

Assay type in all cases: biochemical
Assay [1] has as its target T1, Lck (Homo sapiens, UniProt P06239).
T1 construct: Kinases are expressed as either kinase domains or full length constructs; made in house
Put plainly: Kinase inhibition assay (33P transfer), Lck. The following applies: read-out: Lck-1. A digest of the protocol: (§1)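 33P-ATP transfer to coated synthetic polymer substrates; acid wash (0.5% H3PO4), scintillant, liquid scintillation count. Enzymes: His- or GST-fusion kinases from E. coli or High Five insect cells.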

Assay [2] concerns the target T2, Zap-70 (Homo sapiens, UniProt P43403).
T2 construct: Kinases are expressed as either kinase domains or full length constructs; made in house
T2 sequence (P43403 1-619): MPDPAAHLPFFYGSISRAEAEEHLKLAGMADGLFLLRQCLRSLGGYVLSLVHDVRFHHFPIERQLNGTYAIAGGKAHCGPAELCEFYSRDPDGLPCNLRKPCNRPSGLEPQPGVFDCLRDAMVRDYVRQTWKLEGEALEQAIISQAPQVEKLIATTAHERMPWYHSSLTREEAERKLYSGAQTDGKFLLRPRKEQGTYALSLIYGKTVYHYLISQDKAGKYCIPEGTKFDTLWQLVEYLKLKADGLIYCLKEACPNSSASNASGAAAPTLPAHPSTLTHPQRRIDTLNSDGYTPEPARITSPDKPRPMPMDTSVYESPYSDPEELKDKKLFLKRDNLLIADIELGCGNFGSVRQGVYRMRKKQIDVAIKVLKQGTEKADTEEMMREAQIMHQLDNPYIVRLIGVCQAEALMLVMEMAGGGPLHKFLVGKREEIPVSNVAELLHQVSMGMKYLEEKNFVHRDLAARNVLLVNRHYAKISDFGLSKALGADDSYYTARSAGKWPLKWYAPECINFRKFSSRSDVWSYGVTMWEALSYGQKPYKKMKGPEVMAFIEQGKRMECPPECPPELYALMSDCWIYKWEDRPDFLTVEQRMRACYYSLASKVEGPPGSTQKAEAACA
Put plainly: Kinase inhibition assay (33P transfer), Zap-70. The following applies: read-out: Zap-1. In outline: as §1

Assay [3] deals with T3, Itk (Homo sapiens, UniProt Q08881).
T3 construct: Kinases are expressed as either kinase domains or full length constructs; made in house
T3 sequence (Q08881 1-620): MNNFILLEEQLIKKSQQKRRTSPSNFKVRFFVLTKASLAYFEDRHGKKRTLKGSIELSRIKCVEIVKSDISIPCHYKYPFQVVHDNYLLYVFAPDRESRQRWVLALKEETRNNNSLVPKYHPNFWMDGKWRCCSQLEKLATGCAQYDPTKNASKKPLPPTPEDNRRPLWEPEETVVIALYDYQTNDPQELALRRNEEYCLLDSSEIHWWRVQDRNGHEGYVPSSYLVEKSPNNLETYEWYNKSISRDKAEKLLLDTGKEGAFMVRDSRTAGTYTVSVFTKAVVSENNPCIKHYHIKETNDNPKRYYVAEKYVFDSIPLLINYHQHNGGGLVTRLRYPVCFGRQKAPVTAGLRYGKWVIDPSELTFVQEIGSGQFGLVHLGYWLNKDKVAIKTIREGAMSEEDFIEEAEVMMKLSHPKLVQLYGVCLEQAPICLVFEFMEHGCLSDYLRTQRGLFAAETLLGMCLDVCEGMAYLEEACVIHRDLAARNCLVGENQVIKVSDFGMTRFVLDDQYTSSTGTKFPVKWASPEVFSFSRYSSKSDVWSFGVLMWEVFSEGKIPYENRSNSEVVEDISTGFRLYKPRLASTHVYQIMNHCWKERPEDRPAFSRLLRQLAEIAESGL
In words: Kinase inhibition assay (33P transfer), Itk. As to conditions: read-out: Itk-1. In outline: (§2)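 GST/His-fusion kinases, E. coli or High Five expressed, affinity purified; 33P-ATP, plate-coated poly(Glu,Tyr) 4:1 or poly(Arg,Ser) 3:1; 0.5% H3PO4 wash, scintillant, LSC.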

Assay [4] has as its target T4, EGFR (Homo sapiens, UniProt P00533).
T4 construct: Kinases are expressed as either kinase domains or full length constructs; made in house
Put plainly: Kinase inhibition assay (33P transfer), EGFR. As to conditions: Table 2, kinase inhibition class; read-out: EGFR-1. In outline: as §2

For assay [5], the target named is T5, ErbB2 (Homo sapiens, UniProt P04626).
T5 construct: Kinases are expressed as either kinase domains or full length constructs; made in house
In words: Kinase inhibition assay (33P transfer), ErbB2. The following applies: read-out: ErbB2-2. A digest of the protocol: as §2

Assay [6] concerns the target T6, Kdr (Homo sapiens, UniProt P35968).
T6 construct: Kinases are expressed as either kinase domains or full length constructs; made in house
Put plainly: Kinase inhibition assay (33P transfer), Kdr. As to conditions: read-out: KDR-1. A digest of the protocol: as §1

In assay [7] the target is T7, c-Met (Homo sapiens, UniProt P08581).
T7 construct: Kinases are expressed as either kinase domains or full length constructs; made in house
In words: Kinase inhibition assay (33P transfer), c-Met. As to conditions: Table 2, kinase inhibition class; read-out: Met-1. A digest of the protocol: as §2

Assay [8] addresses T8, AKT (Homo sapiens, UniProt Q9Y243).
T8 construct: Kinases are expressed as either kinase domains or full length constructs; made in house
Put plainly: Kinase inhibition assay (33P transfer), AKT. The following applies: Table 2, kinase inhibition class; read-out: AKT3-1. A digest of the protocol:
as §1

Assay [9] has as its target T9, IGFR-1 (Homo sapiens, UniProt P08069).
T9 construct: Kinases are expressed as either kinase domains or full length constructs; made in house
In words: Kinase inhibition assay, IGFR-1 (Table 2). The following applies: Table 2, kinase inhibition class.

Assay [10] has as its target T10, PDGFRB (Homo sapiens, UniProt P09619).
T10 construct: Kinases are expressed as either kinase domains or full length constructs; made in house
Put plainly: Kinase inhibition assay (33P transfer), PDGFRB. The following applies: read-out: PDGFRB-1.

T10 sequence (P09619 33-1106, species assumed): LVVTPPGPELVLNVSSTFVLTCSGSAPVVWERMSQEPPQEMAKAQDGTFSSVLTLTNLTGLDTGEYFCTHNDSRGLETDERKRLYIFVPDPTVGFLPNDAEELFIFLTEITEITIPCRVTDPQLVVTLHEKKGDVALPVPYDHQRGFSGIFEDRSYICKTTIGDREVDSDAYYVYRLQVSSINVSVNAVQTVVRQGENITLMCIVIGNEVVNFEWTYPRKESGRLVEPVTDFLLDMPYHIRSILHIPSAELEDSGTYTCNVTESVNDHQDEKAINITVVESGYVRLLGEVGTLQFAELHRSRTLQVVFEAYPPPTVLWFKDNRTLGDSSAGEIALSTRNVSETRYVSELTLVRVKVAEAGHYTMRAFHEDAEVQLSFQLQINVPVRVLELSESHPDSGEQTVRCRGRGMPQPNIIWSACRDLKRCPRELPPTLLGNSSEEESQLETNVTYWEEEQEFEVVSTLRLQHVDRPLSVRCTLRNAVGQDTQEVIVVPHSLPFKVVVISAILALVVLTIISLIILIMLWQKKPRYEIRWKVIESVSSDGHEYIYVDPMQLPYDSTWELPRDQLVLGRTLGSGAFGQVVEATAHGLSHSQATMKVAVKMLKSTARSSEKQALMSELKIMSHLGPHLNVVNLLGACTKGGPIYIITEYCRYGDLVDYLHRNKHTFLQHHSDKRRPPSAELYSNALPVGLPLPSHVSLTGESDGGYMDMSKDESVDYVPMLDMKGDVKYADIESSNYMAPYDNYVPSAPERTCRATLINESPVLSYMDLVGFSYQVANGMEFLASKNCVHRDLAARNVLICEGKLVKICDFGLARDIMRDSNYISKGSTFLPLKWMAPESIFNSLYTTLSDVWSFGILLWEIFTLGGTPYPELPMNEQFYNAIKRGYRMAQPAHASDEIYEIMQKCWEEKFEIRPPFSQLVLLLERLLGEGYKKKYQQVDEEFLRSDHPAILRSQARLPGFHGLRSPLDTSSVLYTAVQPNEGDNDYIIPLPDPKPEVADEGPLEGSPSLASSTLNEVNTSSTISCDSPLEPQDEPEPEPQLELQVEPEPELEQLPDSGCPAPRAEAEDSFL
T9 sequence (P08069 31-1367): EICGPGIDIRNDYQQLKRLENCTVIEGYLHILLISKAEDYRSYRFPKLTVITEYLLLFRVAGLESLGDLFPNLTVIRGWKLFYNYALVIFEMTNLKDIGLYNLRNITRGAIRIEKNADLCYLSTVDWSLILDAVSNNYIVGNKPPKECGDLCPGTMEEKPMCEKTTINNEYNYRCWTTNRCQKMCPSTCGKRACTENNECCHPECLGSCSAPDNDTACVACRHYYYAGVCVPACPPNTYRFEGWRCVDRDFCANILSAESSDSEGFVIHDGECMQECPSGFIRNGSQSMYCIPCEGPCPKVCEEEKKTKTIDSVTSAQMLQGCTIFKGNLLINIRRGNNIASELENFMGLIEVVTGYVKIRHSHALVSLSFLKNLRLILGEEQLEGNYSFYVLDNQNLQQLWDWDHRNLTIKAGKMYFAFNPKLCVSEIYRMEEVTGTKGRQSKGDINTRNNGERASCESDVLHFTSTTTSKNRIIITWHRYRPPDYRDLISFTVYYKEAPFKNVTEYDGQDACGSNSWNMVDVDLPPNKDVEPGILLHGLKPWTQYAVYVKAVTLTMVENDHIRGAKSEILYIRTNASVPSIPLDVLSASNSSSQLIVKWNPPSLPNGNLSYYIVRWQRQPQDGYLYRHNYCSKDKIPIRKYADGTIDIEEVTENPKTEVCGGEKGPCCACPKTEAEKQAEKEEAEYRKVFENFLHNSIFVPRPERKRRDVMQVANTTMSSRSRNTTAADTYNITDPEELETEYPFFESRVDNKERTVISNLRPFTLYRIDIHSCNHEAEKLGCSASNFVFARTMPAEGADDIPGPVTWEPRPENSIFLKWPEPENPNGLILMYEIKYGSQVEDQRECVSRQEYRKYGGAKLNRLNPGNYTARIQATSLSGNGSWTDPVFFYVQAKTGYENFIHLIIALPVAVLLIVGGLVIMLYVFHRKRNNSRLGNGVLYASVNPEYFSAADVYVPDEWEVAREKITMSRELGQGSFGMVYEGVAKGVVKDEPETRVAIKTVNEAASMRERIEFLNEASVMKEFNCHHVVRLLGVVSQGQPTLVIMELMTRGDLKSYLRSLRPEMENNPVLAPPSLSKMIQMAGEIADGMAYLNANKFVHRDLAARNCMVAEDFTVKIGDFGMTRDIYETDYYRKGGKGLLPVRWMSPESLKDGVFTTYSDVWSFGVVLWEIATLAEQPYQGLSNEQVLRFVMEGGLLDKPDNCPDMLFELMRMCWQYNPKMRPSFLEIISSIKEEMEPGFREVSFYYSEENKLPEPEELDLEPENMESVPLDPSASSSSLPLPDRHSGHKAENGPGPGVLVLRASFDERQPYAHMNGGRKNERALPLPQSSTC
T1 sequence (P06239 whole entry, species assumed, the tested form may be a part): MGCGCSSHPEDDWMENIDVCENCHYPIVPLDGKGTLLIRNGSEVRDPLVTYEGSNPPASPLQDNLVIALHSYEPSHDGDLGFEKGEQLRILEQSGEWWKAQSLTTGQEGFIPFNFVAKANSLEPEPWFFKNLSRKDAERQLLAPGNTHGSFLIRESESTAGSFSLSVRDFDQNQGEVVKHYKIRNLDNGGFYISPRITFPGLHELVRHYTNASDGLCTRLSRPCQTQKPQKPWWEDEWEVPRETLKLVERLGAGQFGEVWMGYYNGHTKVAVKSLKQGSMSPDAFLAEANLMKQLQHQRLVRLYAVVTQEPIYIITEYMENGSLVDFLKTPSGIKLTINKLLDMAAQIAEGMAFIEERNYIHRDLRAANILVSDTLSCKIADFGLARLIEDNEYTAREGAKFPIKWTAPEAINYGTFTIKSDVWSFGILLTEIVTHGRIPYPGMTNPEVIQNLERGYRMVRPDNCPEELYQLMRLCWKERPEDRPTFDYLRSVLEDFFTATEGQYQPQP
T4 sequence (P00533 25-1210, species assumed): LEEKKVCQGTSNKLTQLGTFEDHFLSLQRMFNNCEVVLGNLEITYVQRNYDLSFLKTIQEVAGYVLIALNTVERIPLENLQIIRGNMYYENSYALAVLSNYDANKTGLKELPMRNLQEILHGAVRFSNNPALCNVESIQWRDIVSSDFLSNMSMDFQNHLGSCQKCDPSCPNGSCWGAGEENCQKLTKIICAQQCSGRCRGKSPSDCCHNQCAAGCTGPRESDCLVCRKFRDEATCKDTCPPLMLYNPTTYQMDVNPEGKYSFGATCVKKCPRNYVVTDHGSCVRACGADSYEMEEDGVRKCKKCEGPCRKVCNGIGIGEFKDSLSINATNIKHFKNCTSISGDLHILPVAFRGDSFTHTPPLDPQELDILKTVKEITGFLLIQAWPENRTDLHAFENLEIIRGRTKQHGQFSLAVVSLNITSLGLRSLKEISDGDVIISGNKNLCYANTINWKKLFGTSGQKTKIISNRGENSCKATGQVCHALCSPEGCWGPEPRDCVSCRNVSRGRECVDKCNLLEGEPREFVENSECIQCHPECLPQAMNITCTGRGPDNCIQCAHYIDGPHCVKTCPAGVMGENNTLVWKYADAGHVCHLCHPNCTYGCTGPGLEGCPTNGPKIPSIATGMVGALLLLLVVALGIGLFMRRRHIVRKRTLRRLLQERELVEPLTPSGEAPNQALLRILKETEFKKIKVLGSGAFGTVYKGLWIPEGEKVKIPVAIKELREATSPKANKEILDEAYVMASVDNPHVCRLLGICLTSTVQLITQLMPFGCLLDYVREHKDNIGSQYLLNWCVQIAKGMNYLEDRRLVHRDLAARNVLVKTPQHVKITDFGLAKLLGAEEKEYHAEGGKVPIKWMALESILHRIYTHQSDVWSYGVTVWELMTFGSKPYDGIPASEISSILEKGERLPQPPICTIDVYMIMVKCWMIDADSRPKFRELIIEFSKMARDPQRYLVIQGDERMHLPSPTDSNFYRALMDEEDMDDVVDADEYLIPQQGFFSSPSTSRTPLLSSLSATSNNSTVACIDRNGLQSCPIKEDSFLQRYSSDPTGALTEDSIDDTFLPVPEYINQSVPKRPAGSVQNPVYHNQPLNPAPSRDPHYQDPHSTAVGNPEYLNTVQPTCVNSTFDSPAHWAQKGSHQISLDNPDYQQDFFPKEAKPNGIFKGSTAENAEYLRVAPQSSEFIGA
T8 sequence (Q9Y243 whole entry, the tested form may be a part): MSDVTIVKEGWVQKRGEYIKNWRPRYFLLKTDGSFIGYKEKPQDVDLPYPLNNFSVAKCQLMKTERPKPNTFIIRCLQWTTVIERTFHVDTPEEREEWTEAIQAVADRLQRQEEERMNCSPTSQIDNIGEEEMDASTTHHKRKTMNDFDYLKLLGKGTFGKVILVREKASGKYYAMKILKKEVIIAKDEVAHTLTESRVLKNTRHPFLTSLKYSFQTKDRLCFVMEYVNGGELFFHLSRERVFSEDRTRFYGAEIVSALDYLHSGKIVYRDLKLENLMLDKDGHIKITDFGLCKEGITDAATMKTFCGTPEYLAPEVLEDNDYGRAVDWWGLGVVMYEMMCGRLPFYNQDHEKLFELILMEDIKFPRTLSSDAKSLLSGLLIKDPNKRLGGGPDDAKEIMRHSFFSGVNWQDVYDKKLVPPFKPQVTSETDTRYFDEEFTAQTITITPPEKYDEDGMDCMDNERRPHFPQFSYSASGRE

`COc1cc(Nc2ncnc(Nc3ccc(OCC(=O)Nc4ccccc4)cc3)n2)cc(OC)c1OC` [Compound 623]: the IC50 in assay [1] was less than 0.796 µM; in [2], greater than 8.95 µM; in assay [3], 0.796 to 4.78 µM; in [4], 0.796 to 4.78 µM; in assay [5], 0.796 to 4.78 µM; in assay [6], 0.796 to 4.78 µM. Besides, the IC50 in assay [7] is 6.96 to 8.95 µM; in assay [8] it was greater than 8.95 µM; in [9] it was 0.796 to 4.78 µM; in [10], less than 0.796 µM.

As to `COc1cc(Nc2ncnc(Nc3cccc(CC(=O)O)c3)n2)cc(OC)c1OC` [Compound 624], the IC50 in assay [1] was 0.972 to 5.83 µM; in assay [2], greater than 10.9 µM; in [3] it was greater than 10.9 µM; in assay [4] it was less than 0.972 µM; in [5], less than 0.972 µM; in assay [6], 5.83 to 8.51 µM. Moreover, the IC50 in assay [7] was greater than 10.9 µM; in assay [8], greater than 10.9 µM; in assay [9], greater than 10.9 µM; in [10] it was 0.972 to 5.83 µM.

Regarding `COc1cc(Nc2ncnc(Nc3cc(Cl)ccc3C)n2)cc(OC)c1OC` [Compound 625], the IC50 is less than 0.995 µM in assay [1]; greater than 11.2 µM in assay [2]; greater than 11.2 µM in [3]; less than 0.995 µM in [4]; less than 0.995 µM in [5]; 0.995 to 5.97 µM in assay [6]. Moreover, the IC50 is greater than 11.2 µM in assay [7], greater than 11.2 µM in assay [8], 0.995 to 5.97 µM in [9] and less than 0.995 µM in assay [10].

Consider `CCCN(CC1CC1)c1ncnc(Nc2cc(OC)c(OC)c(OC)c2)n1` [Compound 626], for which the IC50 in assay [1] was 1.07 to 6.43 µM; in assay [2] it was greater than 12 µM; in assay [3], 9.37 to 12 µM; in assay [4] it was 9.37 to 12 µM; in [5] it was greater than 12 µM; in [6], 1.07 to 6.43 µM. The IC50 in [7] is 1.07 to 6.43 µM; in assay [8], greater than 12 µM; in assay [9], greater than 12 µM; in assay [10], 1.07 to 6.43 µM.

With `COc1ccc(Cl)cc1Nc1ncnc(Nc2cc(OC)c(OC)c(OC)c2)n1` [Compound 627], the IC50 in assay [1] is less than 0.957 µM; in [2], greater than 10.8 µM; in assay [3] it was 0.957 to 5.74 µM; in [4] it was 0.957 to 5.74 µM; in assay [5], 0.957 to 5.74 µM; in [6], 0.957 to 5.74 µM. Further, the IC50 was 8.38 to 10.8 µM in assay [7], greater than 10.8 µM in [8], less than 0.957 µM in [9] and less than 0.957 µM in assay [10].

For the compound `COc1cc(Nc2ncnc(NCCc3ccccc3)n2)cc(OC)c1OC` [Compound 628], the IC50 in assay [1] is 1.05 to 6.29 µM; in [2], greater than 11.8 µM; in [3] it was greater than 11.8 µM; in [4] it was 1.05 to 6.29 µM; in [5] it was greater than 11.8 µM; in [6], 6.29 to 9.18 µM. Also, the IC50 was greater than 11.8 µM in [7], greater than 11.8 µM in assay [8], 1.05 to 6.29 µM in assay [9] and 1.05 to 6.29 µM in [10].

Regarding `COc1cc(Nc2ncnc(Nc3ccc4c(c3)CCC4)n2)cc(OC)c1OC` [Compound 629], the IC50 in assay [1] was less than 1.02 µM; in assay [2], 6.1 to 8.9 µM; in assay [3] it was 1.02 to 6.1 µM; in assay [4] it was 1.02 to 6.1 µM; in assay [5] it was 1.02 to 6.1 µM; in assay [6] it was 1.02 to 6.1 µM. The IC50 in [7] is 6.1 to 8.9 µM; in assay [8], greater than 11.4 µM; in assay [9], less than 1.02 µM; in [10] it was less than 1.02 µM.

With `COc1cc(Nc2ncnc(NCc3ccccc3)n2)cc(OC)c1OC` [Compound 630], the IC50 in [1] is 1.09 to 6.53 µM; in [2], greater than 12.2 µM; in [3] it was greater than 12.2 µM; in assay [4], less than 1.09 µM; in assay [5], 6.53 to 9.53 µM; in [6], 6.53 to 9.53 µM. In addition, the IC50 is greater than 12.2 µM in assay [7], greater than 12.2 µM in [8], 9.53 to 12.2 µM in assay [9] and 1.09 to 6.53 µM in [10].

As for `COc1ccc2c(c1)CCCN2c1ncnc(Nc2cc(OC)c(OC)c(OC)c2)n1` [Compound 631], the IC50 in assay [1] was less than 0.945 µM; in assay [2], greater than 10.6 µM; in [3] it was greater than 10.6 µM; in assay [4], 0.945 to 5.67 µM; in assay [5], 0.945 to 5.67 µM; in assay [6], less than 0.945 µM. Further, the IC50 in [7] is less than 0.945 µM; in assay [8] it was greater than 10.6 µM; in assay [9], 0.945 to 5.67 µM; in [10], less than 0.945 µM.

`COc1cc(Nc2ncnc(Nc3cc(F)cc(C(F)(F)F)c3)n2)cc(OC)c1OC` [Compound 632]: the IC50 in assay [1] is 0.91 to 5.46 µM; in assay [2] it was greater than 10.2 µM; in assay [3], greater than 10.2 µM; in assay [4], less than 0.91 µM; in [5], 0.91 to 5.46 µM; in assay [6], 7.97 to 10.2 µM. Also, the IC50 in assay [7] is greater than 10.2 µM; in [8] it was greater than 10.2 µM; in assay [9] it was 0.91 to 5.46 µM; in [10], 0.91 to 5.46 µM.

For the compound `CN(c1ccccc1)c1ncnc(-n2c(N)nc3ccccc32)n1` [Compound 662], the IC50 in assay [1] was 7.56 to 11 µM; in assay [2], greater than 14.2 µM; in assay [3], greater than 14.2 µM; in [4] it was 7.56 to 11 µM; in assay [5], 7.56 to 11 µM; in [6] it was 1.26 to 7.56 µM. Moreover, the IC50 in [7] was greater than 14.2 µM; in assay [8], greater than 14.2 µM; in assay [9] it was 11 to 14.2 µM; in assay [10], greater than 14.2 µM.

As to `COc1ccc(N(C)c2ncnc(-n3c(N)nc4ccccc43)n2)cc1` [Compound 663], the IC50 in assay [1] was greater than 13 µM; in [2], greater than 13 µM; in assay [3], greater than 13 µM; in assay [4], greater than 13 µM; in assay [5] it was greater than 13 µM; in [6], 6.91 to 10.1 µM. Also, the IC50 in assay [7], in assay [8], in assay [9] and in [10] was greater than 13 µM in each case.

In the case of `CN(c1cccc(Cl)c1)c1ncnc(-n2c(N)nc3ccccc32)n1` [Compound 664], the IC50 fell in the range of 1.14 to 6.82 µM in assay [1]; 6.82 to 9.95 µM in assay [2]; 6.82 to 9.95 µM in [3]; 1.14 to 6.82 µM in [4]; 1.14 to 6.82 µM in assay [5]; 1.14 to 6.82 µM in assay [6]. In addition, the IC50 in [7] lay in the range of 1.14 to 6.82 µM; in assay [8] it was 6.82 to 9.95 µM; in assay [9] it was 1.14 to 6.82 µM; in [10] it was 9.95 to 12.8 µM.

For the compound `Nc1ncnc(Nc2ccc3c(cnn3Cc3ccccc3)c2)n1` [Compound 665], the IC50 in assay [1] is greater than 14.2 µM; in assay [2], greater than 14.2 µM; in assay [3], greater than 14.2 µM; in assay [4], 1.26 to 7.56 µM; in assay [5] it was 1.26 to 7.56 µM; in [6] it was greater than 14.2 µM. For the same compound, the IC50 in [7], in assay [8], in [9] and in [10] was greater than 14.2 µM in each case.
